Measured values: patent US20260191856A1 (priority 2022, published 2026)
Several values for one entry are separate records, joined by “and”; a condition that tells them apart may be missing. Equal entries are not always repeated. Entries after “also recorded” stand apart in the source; their conditions may differ. Where two headings read alike, the source gives them in different places. Marks after values point to notes of the source that are not given here.

Columns and labels:
MOR [1] = target: T1, MOR (Homo sapiens, UniProt P35372); type: cell-based
T1 construct: expressed in transfected cells; host or cells: HEK293T

MOR [2] = target: T1, MOR; type: cell-based; remark: listed apart in the source
MOR [3] = target: T1, MOR; test: TRUPATH subtype selectivity, MOR/DAMGO; type: cell-based; details: compound A3 up to 30 μM
δOR = target: T2, δOR (Homo sapiens, UniProt P41143); test: TRUPATH subtype selectivity, δOR/DPDPE; type: cell-based; details: compound A3 up to 30 μM
T2 construct: expressed in transfected cells; host or cells: HEK293T (method is written for MOR)

κOR = target: T3, κOR (Homo sapiens, UniProt P41145); test: TRUPATH subtype selectivity, κOR/U50488; type: cell-based; details: compound A3 up to 30 μM
T3 construct: expressed in transfected cells; host or cells: HEK293T (method is written for MOR)

male C57BL/6J mice [4] = details: mouse, in vivo
male C57BL/6J mice [5] = test: Conditioned place preference (CPP) assay; type: in vivo, mouse
[6] = male, C57BL/6J, mouse, in vivo, iv, 10 mg/kg
in vivo = details: male, C57BL/6J, mouse, iv, 10 mg/kg
male C57BL/6J mice [7] = test: Locomotor and respiration effects (CLAMS)
male C57BL/6J mice [8] = test: Naloxone-precipitated opioid withdrawal assay
MOR [9] = target: T4, MOR (Mus musculus, UniProt P42866); test: biochemical; type: binding; parameters: made in house; host or cells: Sf9 insect cell membranes (baculovirus)
MOR [10] = target: T4, MOR; type: biochemical; parameters: FLAG (N); hexa-histidine (C); made in house; host or cells: Spodoptera frugiperda (Sf9) for MOR; Trichoplusia ni for Gi
CB1 [11] = target: T5, CB1 (Homo sapiens, UniProt P21554); test: 3H-SR141716A radioligand binding to CB1-containing membranes; parameters: made in house; host or cells: insect cell membranes (inferred from 'similar manner' to the Sf9 MOR membranes); details: compared with ZCZ
Procedure: CB1-containing membranes prepared in a similar manner to the μOR-containing membranes prepared above were diluted 1:2000 in 50 mM HEPES pH 7.4, 5 mM EDTA, 5 mM MgCl2, and 1% bovine serum albumin (BSA). 96-well plates precoated with blocking buffer (20 mM HEPES (pH 7.4), 100 mM NaCl, and 0.05% BSA) were used as reaction plates. For “competition” binding experiments, membranes were incubated with 6 nM ^3H-SR141716a (50.9 Ci/mmol; Perkin Elmer) and serially diluted allosteric modulators for 1 hour at room temperature with shaking. Following incubation, membranes were rapidly bound to double thick 90×120 mm glass fibre Printed Filtermat B filters (Perkin Elmer) presoaked in 0.33% (v/v) polyethylenimine and washed with cold binding buffer (20 mM HEPES pH 7.4, 100 mM NaCl) using a MicroBeta Filtermat-96 cell harvester (Perkin Elmer). ^3H-SR141716a bound membranes on Filtermats were measured with a MicroBeta counter (Perkin Elmer) after addition of MultiLex B/HS melt-on scintillator sheets (Perkin Elmer) and data values were plotted after normalizing total counts per minute to the highest and lowest values.

CB1 [12] = target: T5, CB1; test: GTP turnover assay with CB1 and Gi1; type: biochemical; parameters: Purification of human full-length CB1 with an N-terminal FLAG and C-terminal hexahistidine tags; FLAG (N); hexahistidine (C); made in house; host or cells: insect cells (baculovirus, Expression Systems) for CB1; Trichoplusia ni for Gi
[13] = compound A3 1-100 mg/kg + naloxone 0.1 mg/kg, maximal at 100 mg/kg
[14] = Condition 4 morphine + compound A3 (100 mg/kg) + low NAL (0.1 mg/kg)
[15] = Condition 1 saline + NAL (10 mg/kg)
[16] = Condition 2 morphine + NAL (10 mg/kg)
[17] = Condition 3 morphine + low NAL (0.1 mg/kg)
[18] = Condition 3 morphine + low NAL (0.1 mg/kg), listed as NAL

T5 sequence (P21554 whole entry): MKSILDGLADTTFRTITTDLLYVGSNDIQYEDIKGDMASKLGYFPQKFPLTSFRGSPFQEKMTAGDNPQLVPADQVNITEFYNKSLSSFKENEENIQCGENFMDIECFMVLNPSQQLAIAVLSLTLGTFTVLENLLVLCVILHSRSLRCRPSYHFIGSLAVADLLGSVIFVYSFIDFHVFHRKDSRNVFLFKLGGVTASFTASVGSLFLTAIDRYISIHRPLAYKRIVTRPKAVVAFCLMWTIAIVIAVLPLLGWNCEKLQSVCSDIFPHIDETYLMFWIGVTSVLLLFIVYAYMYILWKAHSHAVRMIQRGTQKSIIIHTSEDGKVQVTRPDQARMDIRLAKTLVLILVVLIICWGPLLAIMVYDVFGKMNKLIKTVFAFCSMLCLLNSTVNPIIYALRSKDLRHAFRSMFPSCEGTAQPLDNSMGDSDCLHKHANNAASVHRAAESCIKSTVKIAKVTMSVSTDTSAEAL
T1 sequence (P35372 whole entry): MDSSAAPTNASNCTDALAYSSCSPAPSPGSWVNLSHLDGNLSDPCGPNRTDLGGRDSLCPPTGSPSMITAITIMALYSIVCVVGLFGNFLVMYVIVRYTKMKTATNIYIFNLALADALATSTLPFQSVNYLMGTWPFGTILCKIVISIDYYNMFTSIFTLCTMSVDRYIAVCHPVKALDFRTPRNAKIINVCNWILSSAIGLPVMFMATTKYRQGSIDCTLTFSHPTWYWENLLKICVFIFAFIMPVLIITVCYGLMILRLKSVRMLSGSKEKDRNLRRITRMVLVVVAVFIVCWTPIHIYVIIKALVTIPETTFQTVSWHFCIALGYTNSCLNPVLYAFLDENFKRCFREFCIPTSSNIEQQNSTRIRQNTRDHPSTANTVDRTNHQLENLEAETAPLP
T4 sequence (P42866 whole entry): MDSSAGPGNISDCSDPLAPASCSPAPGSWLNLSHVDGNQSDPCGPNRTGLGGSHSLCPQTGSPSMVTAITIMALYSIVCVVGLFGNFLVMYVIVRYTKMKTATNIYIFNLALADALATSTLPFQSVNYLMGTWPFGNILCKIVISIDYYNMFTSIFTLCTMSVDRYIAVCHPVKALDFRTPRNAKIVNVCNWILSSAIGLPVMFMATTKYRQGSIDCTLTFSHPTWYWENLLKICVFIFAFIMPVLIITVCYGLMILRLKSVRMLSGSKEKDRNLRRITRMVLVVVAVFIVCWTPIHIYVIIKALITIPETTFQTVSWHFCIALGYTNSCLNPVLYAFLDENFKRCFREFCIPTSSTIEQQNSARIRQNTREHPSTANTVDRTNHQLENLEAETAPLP
T3 sequence (P41145 whole entry): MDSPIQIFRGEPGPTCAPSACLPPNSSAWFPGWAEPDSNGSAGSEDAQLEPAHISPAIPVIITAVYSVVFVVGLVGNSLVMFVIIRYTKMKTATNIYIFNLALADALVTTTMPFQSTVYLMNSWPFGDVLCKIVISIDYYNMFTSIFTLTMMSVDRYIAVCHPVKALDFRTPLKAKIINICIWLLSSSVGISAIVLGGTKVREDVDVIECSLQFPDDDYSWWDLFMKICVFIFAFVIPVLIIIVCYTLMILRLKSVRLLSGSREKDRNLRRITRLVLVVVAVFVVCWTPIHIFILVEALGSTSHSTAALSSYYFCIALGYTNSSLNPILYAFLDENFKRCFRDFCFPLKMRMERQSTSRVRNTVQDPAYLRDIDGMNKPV
T2 sequence (P41143 whole entry): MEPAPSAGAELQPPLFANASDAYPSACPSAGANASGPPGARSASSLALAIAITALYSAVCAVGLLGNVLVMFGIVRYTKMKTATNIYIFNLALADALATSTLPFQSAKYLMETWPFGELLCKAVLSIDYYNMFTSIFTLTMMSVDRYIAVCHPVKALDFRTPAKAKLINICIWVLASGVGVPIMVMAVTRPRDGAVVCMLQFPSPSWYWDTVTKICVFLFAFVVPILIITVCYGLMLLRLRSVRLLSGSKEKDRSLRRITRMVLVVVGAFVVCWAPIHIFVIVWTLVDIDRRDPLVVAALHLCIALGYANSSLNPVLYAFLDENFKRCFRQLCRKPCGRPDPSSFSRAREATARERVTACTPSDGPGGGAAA

Structure (SMILES): CNC(=O)C(Cc1ccc(C)c(OC)c1)NC(=O)CSc1ccc2ccccc2c1-c1cncc(OCc2ccccc2)c1 (racemic) [Compound A3, 2-(2-((1-(5-(benzyloxy)pyridin-3-yl)naphthalen-2-yl)thio)acetamido)-3-(3-methoxy-4-methylphenyl)-N-methylpropanamide]
- enhancement of observed potency of naloxone for inhibiting agonist-induced signaling (MOR [1]): 7.6
- inhibition across Gi/o subtypes (MOR [2]): all Ci/o subtypes were inhibited nearly equally
- right-shift in DAMGO potency at the MOR (MOR [3]): 3.7 fold
- right-shift in DPDPE potency at δOR (δOR): caused a right-shift in DPDPE potency at SOR, though to a lesser extent
- effect at κOR activation by U50,488 (κOR): No effect is observed at KOR activation by U50,488
- impact on morphine-induced antinociception, compound alone (male C57BL/6J mice [4]): no significant impact on morphine-induced antinociception
- inhibition of morphine-induced antinociception in the presence of low-dose naloxone (male C57BL/6J mice [4]): significantly inhibits morphine-induced antinociception in a dose-dependent manner
- median dose to potentiate low-dose naloxone antagonism of morphine antinociception (male C57BL/6J mice [4]): 1.15 (0.03-4.04) mg/kg, s.c.
- morphine CPP after compound A3 and low-dose naloxone (male C57BL/6J mice [5]; compound A3 100 mg/kg sc (−30 min) + naloxone 0.1 mg/kg s.c.): morphine CPP was eliminated
- brain penetration [6]: ~ 25 % of maximum plasma levels
- half-life (in vivo): 44.4 min
- enhancement of low-dose naloxone inhibition of morphine-induced hyperlocomotion (male C57BL/6J mice [7]; [13]): significantly enhances low-dose naloxone inhibition of hyperlocomotion
- enhancement of low-dose naloxone inhibition of morphine-induced respiratory depression (male C57BL/6J mice [7]; [13]): significantly enhances low-dose naloxone inhibition
- ambulation or breathing rate, compound itself (male C57BL/6J mice [7]; compound A3 alone, relative to vehicle): does not change ambulation or breathing rate relative to vehicle administration
- Forepaw Licking Frequency, Avg (male C57BL/6J mice [8]; [14]): 0.6
- Forepaw Tremor, Avg (male C57BL/6J mice [8]; [14]): 1.6
- Rearing Frequency, Avg (male C57BL/6J mice [8]; [14]): 1.6*
- Straightening, Avg (male C57BL/6J mice [8]; [14]): 0.2
- Wet Dog shakes, Avg (male C57BL/6J mice [8]; [14]): 1.1
- magnitude of naloxone-precipitated withdrawal, combined low-dose naloxone/NAM treatment (male C57BL/6J mice [8]; compound A3 100 mg/kg s.c. + naloxone 0.1 mg/kg s.c., morphine-dependent mice): did not potentiate the magnitude of withdrawal caused by a low-dose of naloxone alone to the same levels of withdrawal symptoms as the conventional naloxone treatment
- EC50 (MOR [9]; EC50 of increased binding of 3H-naloxone, MOR-expressing membranes): 130 nM and 133 nM
- increase in 3H-naloxone affinity (MOR [9]; in the presence of excess A3): ~ 2.6 fold and 2.6 fold
- enhancement of observed on-rate of 3H-naloxone (MOR [9]; orthosteric site saturated with mitragynine pseudoindoxyl): > 10 fold
- GTP turnover in the absence of orthosteric ligand (MOR [10]): inhibits turnover of the receptor in the absence of orthosteric ligand; also recorded: inhibited receptor-catalyzed GTP turnover in the absence of orthosteric ligands
- effect on met-enkephalin induced activation of G protein (GTP turnover) (MOR [10]): significantly inhibits met-enkephalin induced activation of Gi; also recorded: inhibited MOR/met-enkephalin induced activation of Gl
- efficacy of modulation of met-enkephalin-induced GTP turnover (MOR [10]): inhibiting GTP depletion to nearly the same levels as those observed for G in the absence of any receptor catalyst; also recorded: nearly eliminating receptor induced GTP turnover
- potency in GTP turnover assay (MOR [10]): single-digit μM range
- potency of A3 at inhibiting relative to A1 at enhancing MOR/met-enkephalin induced activation of G (MOR [10]): > 10 fold

Structure (SMILES): CNC(=O)[C@H](Cc1ccc(C#N)cc1)NCc1csc(-c2cccc(-c3ccc4cc(N)ccc4c3)c2)n1 [Compound A1]
- decrease in naloxone affinity for the receptor (MOR [9]; in the presence of A1): ~ 6 fold
- effect on binding of 3H-naloxone (MOR [9]; increasing amounts of compound, MOR-expressing membranes): decrease binding of ^3H-naloxone to MOR-expressing membranes
- GTP turnover in the absence of orthosteric ligand (MOR [10]): can induce GTP turnover to similar levels observed for the full agonist DAMGO
- effect on met-enkephalin induced activation of G protein (GTP turnover) (MOR [10]): enhance met-enkephalin induced activation of G protein
- efficacy of modulation of met-enkephalin-induced GTP turnover (MOR [10]): more efficacious at improving GTP turnover compared to A2; also recorded: highly effective at enhancing activity, fully depleting nucleotide under these conditions
- potency in GTP turnover assay (MOR [10]): low double-digit micromolar

Structure (SMILES): CNC(=O)c1nc2ccc(N3CC(N)C3)nn2c1-c1ccc(OCc2ccccc2)c(F)c1 [Compound A4]
- effect on 3H-SR141716A antagonist binding (CB1 [11]): binds CB1 and decreases antagonist affinity though with lower potency than the known PAM, ZCZ
- effect on Gi1 GTP turnover, AEA-bound CB1 (CB1 [12]; AEA): not AEA-bound CB1
- effect on Gi1 GTP turnover, FUB-bound CB1 (CB1 [12]; FUB (MDMB-Fubinaca)): enhance FUB-induced Gi turnover; also recorded: specifically able to increase turnover for FUB-bound CB1

Structure (SMILES): CNC(=O)[C@H](Cc1ccc(C)c(OC)c1)NC(=O)CSc1ccc2ccccc2c1-c1cncc(OCc2ccccc2)c1 [Compound B1, (S)-2-(2-((1-(5-(benzyloxy)pyridin-3-yl)naphthalen-2-yl)thio)acetamido)-3-(3-methoxy-4-methylphenyl)-N-methylpropanamide]
- potency of B1 relative to B2, 3H-naloxone results (MOR [9]; FIG. 5A): ≥ 100 fold
- potency of B1 relative to B2, GTP turnover assays (MOR [10]): ≥ 100

Structure (SMILES): CN1CC[C@]23c4c5ccc(O)c4O[C@H]2[C@@H](O)C=C[C@H]3[C@H]1C5 [Morphine]
- ambulations (male C57BL/6J mice [7]; Morphine (20 mg/kg, s.c.)): significantly increased ambulations for over 140 min
- breathing rate (male C57BL/6J mice [7]; Morphine (20 mg/kg, s.c.)): decreased breathing rate through 100 min

Structure (SMILES): C=CCN1CC[C@]23c4c5ccc(O)c4O[C@H]2C(=O)CC[C@@]3(O)[C@H]1C5 [Naloxone]
- antagonism of morphine-induced antinociception by low-dose naloxone alone (male C57BL/6J mice [4]): no significant antagonism
- morphine CPP after vehicle and low-dose naloxone (male C57BL/6J mice [5]; vehicle (−30 min) + naloxone 0.1 mg/kg s.c. (−15 min)): did not prevent significant morphine CPP
- effect of low-dose naloxone pretreatment on morphine-induced hyperlocomotion (male C57BL/6J mice [7]; naloxone 0.1 mg/kg): ineffective in ameliorating morphine-induced hyperlocomotion
- effect of low-dose naloxone pretreatment on morphine-induced respiratory depression (male C57BL/6J mice [7]; naloxone 0.1 mg/kg): observed to reduce morphine-induced respiratory depression
- Forepaw Tremor, Avg (male C57BL/6J mice [8]; [15]): 26.7
- Jumping Frequency, Avg (male C57BL/6J mice [8]; [15]): 2.7
- Rearing Frequency, Avg (male C57BL/6J mice [8]; [15]): 23.5
- Stool Consistency, Avg (male C57BL/6J mice [8]; [15]): 1.6
- Straightening, Avg (male C57BL/6J mice [8]; [15]): 0.1
- Teeth Chattering Frequency, Avg (male C57BL/6J mice [8]; [15]): 1
- Forepaw Tremor, Avg (male C57BL/6J mice [8]; [16]): 26.7
- Jumping Frequency, Avg (male C57BL/6J mice [8]; [16]): 76.9*
- Rearing Frequency, Avg (male C57BL/6J mice [8]; [16]): 2.64*
- Stool Consistency, Avg (male C57BL/6J mice [8]; [16]): precipitates significant diarrhea
- Straightening, Avg (male C57BL/6J mice [8]; [16]): 0.55
- Teeth Chattering Frequency, Avg (male C57BL/6J mice [8]; [16]): 54.2*
- Stool Consistency, Avg (male C57BL/6J mice [8]; Condition 2 morphine + NAL (10 mg/kg), listed as NAL): 7.46*
- Forepaw Tremor, Avg (male C57BL/6J mice [8]; [17]): 7.3
- Jumping Frequency, Avg (male C57BL/6J mice [8]; [17]): caused significant withdrawal symptoms
- Rearing Frequency, Avg (male C57BL/6J mice [8]; [17]): 22.2
- Stool Consistency, Avg (male C57BL/6J mice [8]; [17]): precipitates significant diarrhea
- Straightening, Avg (male C57BL/6J mice [8]; [17]): 3.1
- Teeth Chattering Frequency, Avg (male C57BL/6J mice [8]; [17]): had no effect relative to saline alone
- Jumping Frequency, Avg (male C57BL/6J mice [8]; [18]): 45.4*†
- Stool Consistency, Avg (male C57BL/6J mice [8]; [18]): 9.3*
- Teeth Chattering Frequency, Avg (male C57BL/6J mice [8]; [18]): 0.7+

Structure (SMILES): Cc1ccc2c(C(C[N+](=O)[O-])c3cccs3)c(-c3ccccc3)[nH]c2c1 (stereo not drawn) [ZCZ, reference compound]
- effect on Gi1 GTP turnover, AEA-bound CB1 (CB1 [12]): causes increased Gi1 turnover for both FUB and AEA, equally
- effect on Gi1 GTP turnover, FUB-bound CB1 (CB1 [12]): causes increased Gi1 turnover for both FUB and AEA, equally
